Measurements: patent US4816490A, “Novel therapeutic use of a derivative of indane dione and the pharmaceutical compositions intended for this use” (priority 1987, dated 1989)

Tests used:
[1] = system: female rats of Wistar strain; assay: Tolerance, mortality and body weight in the rat atheroma study; conditions: 100 mg/kg
Source text: (§1) Female rats of Wistar strain, free of specific pathogenic germs (EOPS) stemming from the breeding EVIC-CEBA
(§2) Diet of the animals: the animals were given the atheromatogenous regimen then while maintaining the same regimen, they were given for 4 days 250,000 IU/kg of vitamin D2 dissolved in olive oil (Sterogyl 15H). The compounds to be tested were given thereafter for 4 weeks immediately after the termination of the atheromatogenous regimen.
The behavior and the changes in weight of the animals were surveyed every day as well as by weekly weighing.

[2] = system: atheroma / hyperlipidaemia in Wistar rats on atheromatogenous regimen; assay: Overall hypolipaemiant and anti-atheromatous classification (summarized scores); assay type: in vivo, rat; conditions: 100 mg/kg
Source text: (§3) The method utilized for the test was that, slightly altered of Aubert D. Feraud J. C., Lacaze B., Pepino., Ponak E. et Podesta M. as described in Atherosclerosis, Vol. 20 (1974), p. 263-280 (Experimental Atherogenesis in the Wistar Rat).
as §1
(§4) Diet: standard tablets UAE AO 3 enriched in cholesterol (0.5%) and in cholic acid (0.5).
as §2

[3] = system: male and female mice of Swiss strain; assay: Acute toxicity after single intraperitoneal administration; assay type: in vivo; conditions: IP
Source text: (§5) Male and female mice of Swiss strain weighing from 22 to 25 g of body weight were free of pathogen specific organisms (EOPS), stemming from breeding CERJ (53860 LE GENEST (France) and acclimated for at least 8 days in the animalry of the firm.
(§6) Except where stipulated to the contrary, in the tables giving the results, 10 animals of the same sex for each dose were housed in cages of MAKROLON (Safi) of 40 cm by 25 cm filled with shaving of wood. Standard feeding for rats and mice, tablets UAR and tap water ad libitum.
(§7) The compounds were administered without previous fasting either orally (gastric tubing using a metallic oesophageous sonde) at a rate of 0.5 ml or 1 ml per 20 g of body weight of an aqueous suspension of the test compound in a 3% solution of arabic gum, or intraperitoneally at a rate of 0.5 ml or 1 ml per 20 g of body weight of the test compound suspended in an isotonic saline solution containing 3% of arabic gum.
(§8) For 6 days after the single administration and then every day for 15 days.
(§9) When necessary, the mean lethal doses (LD 50) were calculated by the method of Behrens and Karber (BK) and Miller and Tainter (MT). The latter allowing to supply with, for the threshold of probability P=0.05 a limit of confidence for the LD 50. Further calculated were the LDo i.e. DMT=maximal doses always tolerated and the LD100 i.e. DMM=minimal doses always lethal.

[4] = Anti-lipaemiant activity (general statement); assay type: in vivo; conditions: read-out: Dose from which a clear anti-lipaemiant activity is shown
[5] = system: male and female mice of Swiss strain; assay: Acute toxicity after single oral administration; assay type: in vivo; conditions: for Deaths / toxic symptoms: single dose 10 g/kg
Source text: as §5, §6, §7, §8, §9
The compound was administered in a single dose to batches of 10 male or female mice weighing […] at a rate of 1 ml per 20 g of body weight.

[6] = system: hyperlipidaemia / atheroma in Wistar rats on atheromatogenous regimen; assay: Biochemical testings in rats on atheromatogenous (cholesterol-rich) diet, including atheroma risk ratios; assay type: in vivo, rat
Source text: as §3, §1
Mean body weight: 160-180 g at the start of the test
as §4
15 animals per each batch and by cage in MACROLON (Safi) of 59 cm×38 cm, 5 cm filled with a litter of shavings of wood.
as §2
At the end of these studies the following tests were performed on all surviving animals.
Esterified blood cholesterol
Cholesterol in LDL (estimate)
The total score for each product was obtained by adding each individual scores and allowed the following classification
The protection against the atheromatogenous risk was evaluated using the following ratios: […]

[7] = Anti-inflammatory / analgesic activity; assay type: in vivo; conditions: doses lower than previously disclosed
Protocol: The said 2-[(3,4-dimethoxy-benzoyl)-methyl]-2-hydroxy-1,3-dioxo-Indane has been used in the French patent at a dose of 250 mg/kg to induce an anti-inflammatory threshold effect. Consequently, the dosology disclosed in the French patent for the use in human therapy shall range from 400 to 1200 mg daily.

## COc1ccc(C(=O)CC2(O)C(=O)c3ccccc3C2=O)cc1OC [Compound of the invention, 2-[(3,4-dimethoxy-benzoyl)-methyl]-2-hydroxy-1,3-dioxo Indane]
[1]; 4 weeks, atheromatogenous regimen
  Mortality compared with batch No. 2 (2/15): did not increase it
[1]; rat, in vivo
  Tolerance compared with Clofibrate: better tolerated
[2]
  Classification of the anti-atheromatous action: Compound of the invention>Fenofibrate>Clofibrate
  Hypolipaemiant and anti-atheromatous activity: marked hypolipaemiant and anti-atheromatous activity, very close to Clofibrate (100 mg/kg) and far better than those of Fenclofibrate (100 mg/kg)
[3]
  Symptoms after injection: crawling after the injection then a protracted prostation took place with piloerection and bradypnea cyanosis
[3]; 2000 mg/kg, females
  Mortality in 10 mice: 0
[3]; 2000 mg/kg, males
  Mortality in 10 mice: 0
[3]; 2500 mg/kg, females
  Mortality in 10 mice: 1
[3]; 2500 mg/kg, males
  Mortality in 10 mice: 1
[3]; 3000 mg/kg, females
  Mortality in 10 mice: 6
[3]; 3000 mg/kg, males
  Mortality in 10 mice: 3
[3]; 3 to 4 g/kg, after 5 to 7 days
  Late mortalities: generally 1 death per dose for each sex
[3]; 3500 mg/kg, females
  Mortality in 10 mice: 8
[3]; 3500 mg/kg, males
  Mortality in 10 mice: 5
[3]; 4000 mg/kg, females
  Mortality in 10 mice: 10
[3]; 4000 mg/kg, males
  Mortality in 10 mice: 8
[3]; 4500 mg/kg, females
  Mortality in 10 mice: 10
[3]; 4500 mg/kg, males
  Mortality in 10 mice: 10
[3]; 5000 mg/kg, females
  Mortality in 10 mice: 10
[3]; 5000 mg/kg, males
  Mortality in 10 mice: 10
[3]; female mice
  LD100 (minimal dose always lethal): 4000 mg/kg
  LDo (maximal dose always tolerated): 2000 mg/kg
[3]; male mice
  LD100 (minimal dose always lethal): 4500 mg/kg
  LDo (maximal dose always tolerated): 2000 mg/kg
[3]; single administration
  Toxicity in comparison with Clofibrate: markedly less toxic than Clofibrate
[4]
  minimal effective dose: ≥ 100 mg/kg
[5]; general statement
  Toxicity: very low toxicity
[5]; oral, male or female mice
  LD100: > 10000 mg/kg
  LDo: 10000 mg/kg
  Deaths / toxic symptoms: no toxicity even at a dose of 10 g/kg
[5]; oral, male or female mice, listed as test compound
  Deaths / toxic symptoms: no deaths nor toxic symptoms appeared
[5]; single administration, orally or parenterally
  Toxicity in comparison with Clofibrate: less toxic than Clofibrate
[6]; 100 mg/kg
  Cholesterol in LDL / Cholesterol in HDL, % in comparison with Controls-Diet: -36.10%
  Total Blood Cholesterol / Cholesterol in HDL, % in comparison with Controls-Diet: -33.22%
[6]; 100 mg/kg, 4 weeks
  Cholesterol in HDL, variation in comparison to controls-Diet: -33.33%
  Esterified cholesterol, variation in comparison to controls-Diet: -57.70%
  Total Blood lipids, variation in comparison to controls-Diet: -48.47%
  Total blood cholesterol, variation in comparison to controls-Diet: -55.47%
  Triglycerids, variation in comparison to controls-Diet: -25.86%
[6]; 100 mg/kg, 4 weeks, LDL (estimate)
  Cholesterol in LDL, variation in comparison to controls-Diet: -57.41%
[6]; 100 mg/kg, listed as Compound according to this invention
  Atheromatous risk total score: 0.90
[6]; 100 mg/kg, listed as Compound of this invention
  Atheromatous risk total score: 0.90
[6]; same doses, cholesterol-rich diet
  Activity on the biochemical level vs Clofibrate: as active as Clofibrate on the biochemical level
[7]
  Anti-inflammatory or analgesic properties at the antilipaemiant doses: does not show anti-inflammatory or analgesic properties
